In patent US9233111B2, “Pyrrolo pyrimidine derivatives” (NOVARTIS AG, priority 2011, dated 2016):

Target: full-length human recombinant BTK (Homo sapiens (Human), UniProt Q06187)
Assay: Inhibition of Btk enzymatic activity (biochemical enzyme assay, Caliper)
Details: 30° C., 60 minutes
Protocol: The inhibitory activity of the present compounds against Btk was assessed in a biochemical enzyme assay. Assay plates in 384 well format were prepared with 8-point serial dilutions for the test compounds on a Thermo CatX workstation equipped with a Innovadyne Nanodrop Express. The assay plates were prepared by addition of 50 nl per well of compound solution in 90% DMSO. The kinase reactions were started by stepwise addition of 4.5 μl per well of peptide/ATP-solution (4 μM FITC-Ahx-[…]-NH2, 164 μM ATP) in kinase buffer (50 mM HEPES, pH 7.5, 1 mM DTT, 0.02% Tween20, 0.02% BSA, 0.6% DMSO, 10 mM beta-glycerophosphate, and 10 μM sodium orthovanadate, 18 mM MgCl2, 1 mM MnCl2) and 4.5 μl per well of enzyme solution (6.4 nM full-length human recombinant BTK) in kinase buffer. Kinase reactions were incubated at 30° C. for 60 minutes and subsequently terminated by addition of 16 μl per well of stop solution (100 mM HEPES pH 7.5, 5% DMSO, 0.1% Caliper coating reagent, 10 mM EDTA, and 0.015% Brij35). Kinase reactions were analyzed on a Caliper LC3000 workstation by separating phosphorylated and unphosphorylated peptides and kinase activities were calculated from the amounts of newly formed phospho-peptide. Inhibition data were calculated by comparison to control reactions without enzyme (100% inhibition) and without inhibitors (0% inhibition). The concentration of inhibitor required for 50% inhibition (IC50) was calculated from the inhibition in response to inhibitor concentrations.

Sequence of full-length human recombinant BTK (Q06187 whole entry): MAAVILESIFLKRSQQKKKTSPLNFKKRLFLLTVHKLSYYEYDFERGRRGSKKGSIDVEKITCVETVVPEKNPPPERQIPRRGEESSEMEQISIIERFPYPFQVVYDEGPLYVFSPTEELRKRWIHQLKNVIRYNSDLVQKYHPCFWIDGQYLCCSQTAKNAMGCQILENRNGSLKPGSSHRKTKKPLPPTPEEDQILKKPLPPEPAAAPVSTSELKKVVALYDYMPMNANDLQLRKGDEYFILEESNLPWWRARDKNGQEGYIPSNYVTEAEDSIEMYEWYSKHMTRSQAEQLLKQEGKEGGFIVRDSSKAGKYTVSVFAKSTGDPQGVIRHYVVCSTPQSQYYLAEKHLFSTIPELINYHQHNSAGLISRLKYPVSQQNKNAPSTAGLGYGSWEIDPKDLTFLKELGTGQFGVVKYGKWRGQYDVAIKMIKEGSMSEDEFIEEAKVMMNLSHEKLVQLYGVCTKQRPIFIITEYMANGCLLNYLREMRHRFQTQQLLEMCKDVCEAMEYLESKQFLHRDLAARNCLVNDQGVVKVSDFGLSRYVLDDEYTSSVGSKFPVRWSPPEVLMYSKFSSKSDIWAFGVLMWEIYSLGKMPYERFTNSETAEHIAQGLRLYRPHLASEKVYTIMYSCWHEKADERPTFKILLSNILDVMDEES

SMILES	IC50
Cc1c(NC(=O)c2ccc(C3(F)CC3)cc2)cc(F)cc1-c1ncnc2[nH]c(C3=CCN(C(=O)N(C)C)CC3)cc12 [Example 1, 4-(4-{5-Fluoro-3-[4-(1-fluoro-cyclopropyl)-benzoylamino]-2-methyl-phenyl}-7H-pyrrolo[2′3-d]pyrimidin-6-yl)-3,6-dihydro-2H-pyridine-1-carboxylic acid dimethylamide]	1 nM
Cc1c(NC(=O)c2ccc(N(C)C(C)C)cc2)cc(F)cc1-c1ncnc2[nH]c(C3=CCN(C(=O)N(C)C)CC3)cc12 [Example 4]	2 nM
Cc1c(NC(=O)c2ccc3c(C)c[nH]c3c2)cc(F)cc1-c1ncnc2[nH]c(C3=CCN(C(=O)N(C)C)CC3)cc12 [Example 5, 3-Methyl-1H-indole-6-carboxylic acid {3-[6-(1-dimethylcarbamoyl-1,2,3,6-tetrahydro-pyridin-4-yl)-7H-pyrrolo[2,3-d]pyrimidin-4-yl]-5-fluoro-2-methyl-phenyl}-amide]	3 nM
Cc1c(NC(=O)c2ccc(N3CCCCC3)cc2)cc(F)cc1-c1ncnc2[nH]c(C3=CCN(C(=O)N(C)C)CC3)cc12 [Example 7, 4-{4-[5-Fluoro-2-methyl-3-(4-piperidin-1-yl-benzoylamino)-phenyl]-7H-pyrrolo[2,3-d]pyrimidin-6-yl}-3,6-dihydro-2H-pyridine-1-carboxylic acid dimethylamide]	3 nM
Cc1c(NC(=O)c2ccc(C3(C(F)(F)F)CC3)cc2)cc(F)cc1-c1ncnc2[nH]c(C3=CCN(C(=O)N(C)C)CC3)cc12 [Example 9, 4-(4-{5-Fluoro-2-methyl-3-[4-(1-trifluoromethyl-cyclopropyl)-benzoylamino]-phenyl}-7H-pyrrolo[2,3-d]pyrimidin-6-yl)-3,6-dihydro-2H-pyridine-1-carboxylic acid dimethylamide]	5 nM
Cc1c(NC(=O)c2ccc(OC(C)C)cc2)cc(F)cc1-c1ncnc2[nH]c(C3=CCN(C(=O)N(C)C)CC3)cc12 [Example 10, 4-{4-[5-Fluoro-3-(4-isopropoxy-benzoylamino)-2-methyl-phenyl]-7H-pyrrolo[2,3-d]pyrimidin-6-yl}-3,6-dihydro-2H-pyridine-1-carboxylic acid dimethylamide]	15 nM
Cc1c(NC(=O)c2ccc(S(F)(F)(F)(F)F)cc2)cc(F)cc1-c1ncnc2[nH]c(C3=CCN(C(=O)N(C)C)CC3)cc12 [Example 11, 4-(4-{5-Fluoro-3-[4-pentafluorothio-benzoylamino]-2-methyl-phenyl}-7H-pyrrolo[2,3-d]pyrimidin-6-yl)-3,6-dihydro-2H-pyridine-1-carboxylic acid dimethylamide]	5 nM
COCC(C)(C)c1ccc(C(=O)Nc2cc(F)cc(-c3ncnc4[nH]c(C5=CCN(C(=O)N(C)C)CC5)cc34)c2C)cc1 [Example 12, 4-(4-{5-Fluoro-3-[4-(2-methoxy-1,1-dimethyl-ethyl)-benzoylamino]-2-methyl-phenyl}-7H-pyrrolo[2,3-d]pyrimidin-6-yl)-3,6-dihydro-2H-pyridine-1-carboxylic acid dimethylamide]	4 nM
COC(C)(C)c1ccc(C(=O)Nc2cc(F)cc(-c3ncnc4[nH]c(C5=CCN(C(=O)N(C)C)CC5)cc34)c2C)cc1 [Example 13, 4-(4-{5-Fluoro-3-[4-(1-methoxy-1-methyl-ethyl)-benzoylamino]-2-methyl-phenyl}-7H-pyrrolo[2,3-d]pyrimidin-6-yl)-3,6-dihydro-2H-pyridine-1-carboxylic acid dimethylamide]	4 nM
Cc1c(NC(=O)c2ccc3ccn(C)c3n2)cc(F)cc1-c1ncnc2[nH]c(C3=CCN(C(=O)N(C)C)CC3)cc12 [Example 14, 1-Methyl-1H-pyrrolo[2,3-b]pyridine-6-carboxylic acid {3-[6-(1-dimethyl-carbamoyl-1,2,3,6-tetrahydro-pyridin-4-yl)-7H-pyrrolo[2,3-d]pyrimidin-4-yl]-5-fluoro-2-methyl-phenyl}-amide]	16 nM
Cc1c(NC(=O)c2ccc(N(C)C)cc2)cc(F)cc1-c1ncnc2[nH]c(C3=CCN(C(=O)N(C)C)CC3)cc12 [Example 15, 4-{4-[3-(4-Dimethylamino-benzoylamino)-5-fluoro-2-methyl-phenyl]-7H-pyrrolo[2,3-d]pyrimidin-6-yl}-3,6-dihydro-2H-pyridine-1-carboxylic acid dimethylamide]	17 nM
Cc1c(NC(=O)c2ccc(C(C)(O)C(F)(F)F)cc2)cc(F)cc1-c1ncnc2[nH]c(C3=CCN(C(=O)N(C)C)CC3)cc12 (stereo not drawn) [Example 18, 4-(4-{5-Fluoro-2-methyl-3-[4-(2,2,2-trifluoro-1-hydroxy-1-methyl-ethyl)-benzoylamino]-phenyl}-7H-pyrrolo[2,3-d]pyrimidin-6-yl)-3,6-dihydro-2H-pyridine-1-carboxylic acid dimethylamide]	6 nM
CC(=O)c1ccc(C(=O)Nc2cc(F)cc(-c3ncnc4[nH]c(C5=CCN(C(=O)N(C)C)CC5)cc34)c2C)cc1 [Example 19, 4-{4-[3-(4-Acetyl-benzoylamino)-5-fluoro-2-methyl-phenyl]-7H-pyrrolo[2,3-d]pyrimidin-6-yl}-3,6-dihydro-2H-pyridine-1-carboxylic acid dimethylamide]	23 nM
CN(C)C(=O)N1CC=C(c2cc3c(-c4ccc(F)c(NC(=O)c5ccc(C6CC6)cc5)c4)ncnc3[nH]2)CC1 [Example 20, 4-{4-[3-(4-Cyclopropyl-benzoylamino)-4-fluoro-phenyl]-7H-pyrrolo[2,3-d]pyrimidin-6-yl}-3,6-dihydro-2H-pyridine-1-carboxylic acid dimethylamide]	6 nM
CN(C)C(=O)N1CC=C(c2cc3c(-c4ccc(F)c(NC(=O)c5ccc(C(C)(C)CO)cc5)c4)ncnc3[nH]2)CC1 [Example 21, 4-(4-{4-Fluoro-3-[4-(2-hydroxy-1,1-dimethyl-ethyl)-benzoylamino]-phenyl}-7H-pyrrolo[2,3-d]pyrimidin-6-yl)-3,6-dihydro-2H-pyridine-1-carboxylic acid dimethylamide]	6 nM
Cc1c(NC(=O)c2ccc(C(C)(C)O)cc2F)cc(F)cc1-c1ncnc2[nH]c(C3=CCOCC3)cc12 [Example 22, N-{3-[6-(3,6-Dihydro-2H-pyran-4-yl)-7H-pyrrolo[2,3-d]pyrimidin-4-yl]-5-fluoro-2-methyl-phenyl}-2-fluoro-4-(1-hydroxy-1-methyl-ethyl)-benzamide]	8 nM
CC(C)(O)c1ccc(C(=O)Nc2cccc(-c3ncnc4[nH]c(C5=CCOCC5)cc34)c2CO)c(F)c1 [Example 23, N-{3-[6-(3,6-Dihydro-2H-pyran-4-yl)-7H-pyrrolo[2,3-d]pyrimidin-4-yl]-2-hydroxymethyl-phenyl}-2-fluoro-4-(1-hydroxy-1-methyl-ethyl)-benzamide]	12 nM
Cc1c(NC(=O)c2ccc(C(C)(C)C)cc2)cc(F)cc1-c1ncnc2[nH]c(C3=CC[S+]([O-])CC3)cc12 (stereo not drawn) [Example 25, 4-tert-Butyl-N-{5-fluoro-2-methyl-3-[6-(3,6-dihydro-1-oxido-2H-thiopyran-4-yl)-7H-pyrrolo[2,3-d]pyrimidin-4-yl]-phenyl}-benzamide]	2 nM
Cc1c(NC(=O)c2ccc(C(C)(C)C)cc2)cc(F)cc1-c1ncnc2[nH]c(C3=CCS(=O)(=O)CC3)cc12 [Example 26, 4-tert-Butyl-N-{3-[6-(3,6-dihydro-1,1-dioxido-2H-thiopyran-4-yl)-7H-pyrrolo[2,3-d]pyrimidin-4-yl]-5-fluoro-2-methyl-phenyl}-benzamide]	35 nM
Cc1c(NC(=O)c2ccc(C(C)(C)C)cc2)cc(F)cc1-c1ncnc2[nH]c(C3=CCC(O)CC3)cc12 (stereo not drawn) [Example 28, 4-tert-Butyl-N-{5-fluoro-3-[6-(4-hydroxy-cyclohex-1-enyl)-7H-pyrrolo[2,3-d]pyrimidin-4-yl]-2-methyl-phenyl}-benzamide]	46 nM
Cc1c(NC(=O)c2ccc(C3CC3)cc2)cc(F)cc1-c1ncnc2[nH]c(C3=CCN(C(=O)N(C)C)CC3)cc12 [Example 29, 4-{4-[3-(4-Cyclopropyl-benzoylamino)-5-fluoro-2-methyl-phenyl]-7H-pyrrolo[2′3-d]pyrimidin-6-yl}-3,6-dihydro-2H-pyridine-1-carboxylic acid dimethylamide]	13 nM
Cc1c(NC(=O)c2ccc(C3CC3)cc2)cc(F)cc1-c1ncnc2[nH]c(C3=CCN(C(=O)N4CCCC4)CC3)cc12 [Example 30, 4-Cyclopropyl-N-(5-fluoro-2-methyl-3-{6-[1-(pyrrolidine-1-carbonyl)-1,2,3,6-tetrahydro-pyridin-4-yl]-7H-pyrrolo[2,3-d]pyrimidin-4-yl}-phenyl)-benzamide]	6 nM
CC(=O)OCC(=O)N1CC=C(c2cc3c(-c4cc(F)cc(NC(=O)c5ccc(C6CC6)cc5)c4C)ncnc3[nH]2)CC1 [Example 31, Acetic acid 2-(4-{4-[3-(4 cyclopropyl-benzoylamino)-5-fluoro-2-methyl-phenyl]-7H-pyrrolo[2,3-d]pyrimidin-6-yl}-3,6-dihydro-2H-pyridin-1-yl)-2-oxo-ethyl ester]	3 nM
Cc1c(NC(=O)c2ccc(S(F)(F)(F)(F)F)cc2)cc(F)cc1-c1ncnc2[nH]c(C3=CCN(C(=O)N4CCCC4)CC3)cc12 [Example 34, N-(5-Fluoro-2-methyl-3-{6-[1-(pyrrolidine-1-carbonyl)-1,2,3,6-tetrahydro-pyridin-4-yl]-7H-pyrrolo[2,3-d]pyrimidin-4-yl}-phenyl)-4-(pentafluoro-sulfanyl)-benzamide]	34 nM
